Reference: the NIST ThermoML archive (doi:10.1016/j.fluid.2017.09.003)

Test: mn = molality of the nth substance listed, in mol/kg
Settings: Liquid, isochoric method

CCCCCC[n+]1ccn(C)c1.O=S(=O)([N-]S(=O)(=O)C(F)(F)F)C(F)(F)F + O=C=O
Settings	molar volume [m3/mol]
303.15 K, 228.1 kPa, m2 = 0.1549	0.0003078
303.15 K, 400.5 kPa, m2 = 0.277	0.0002962
303.15 K, 642.1 kPa, m2 = 0.4471	0.0002815
303.15 K, 786.2 kPa, m2 = 0.5432	0.0002738
303.15 K, 1036.5 kPa, m2 = 0.726	0.0002604
303.15 K, 1399.2 kPa, m2 = 0.9896	0.000243
303.15 K, 1689 kPa, m2 = 1.194	0.0002316
303.15 K, 1806.5 kPa, m2 = 1.29	0.0002265
303.15 K, 2065.3 kPa, m2 = 1.48	0.000217
303.15 K, 2289.9 kPa, m2 = 1.65	0.0002093
303.15 K, 2463.9 kPa, m2 = 1.782	0.0002037
303.15 K, 2819.3 kPa, m2 = 2.069	0.0001926
303.15 K, 3076.9 kPa, m2 = 2.267	0.0001856
303.15 K, 3555.5 kPa, m2 = 2.65	0.0001736
313.15 K, 337.1 kPa, m2 = 0.1947	0.0003066
313.15 K, 699.4 kPa, m2 = 0.4069	0.0002879
313.15 K, 1209.5 kPa, m2 = 0.7242	0.0002644
313.15 K, 1653.6 kPa, m2 = 1.006	0.0002471
313.15 K, 2111.8 kPa, m2 = 1.285	0.0002306
313.15 K, 2538.3 kPa, m2 = 1.615	0.0002177
313.15 K, 3188.6 kPa, m2 = 2.11	0.0001995
323.15 K, 465.7 kPa, m2 = 0.2272	0.0003063
323.15 K, 850.7 kPa, m2 = 0.4281	0.0002889
323.15 K, 1323.9 kPa, m2 = 0.6731	0.0002706
323.15 K, 1708.8 kPa, m2 = 0.8789	0.0002573
323.15 K, 2180.2 kPa, m2 = 1.152	0.0002419
323.15 K, 2704.6 kPa, m2 = 1.345	0.0002273
323.15 K, 3105.7 kPa, m2 = 1.546	0.0002172
333.15 K, 245.6 kPa, m2 = 0.1044	0.0003209
333.15 K, 519.1 kPa, m2 = 0.2209	0.0003096
333.15 K, 894.3 kPa, m2 = 0.3855	0.0002952
333.15 K, 1364.2 kPa, m2 = 0.6046	0.0002782
333.15 K, 1849.2 kPa, m2 = 0.8295	0.0002632
333.15 K, 2312.2 kPa, m2 = 1.051	0.0002501
333.15 K, 2799.2 kPa, m2 = 1.3	0.0002373
343.15 K, 474.1 kPa, m2 = 0.1783	0.0003165
343.15 K, 952.8 kPa, m2 = 0.3503	0.0003002
343.15 K, 1440.2 kPa, m2 = 0.553	0.0002849
343.15 K, 1937.6 kPa, m2 = 0.7557	0.0002707
343.15 K, 2453.7 kPa, m2 = 0.974	0.0002573
343.15 K, 2938.6 kPa, m2 = 1.181	0.0002461
343.15 K, 3446.9 kPa, m2 = 1.424	0.0002344
353.15 K, 502 kPa, m2 = 0.1643	0.0003208
353.15 K, 987.3 kPa, m2 = 0.3338	0.0003053
353.15 K, 1440.2 kPa, m2 = 0.4916	0.0002925
353.15 K, 1907.3 kPa, m2 = 0.6717	0.0002794
353.15 K, 2419.6 kPa, m2 = 0.8598	0.0002671
353.15 K, 2888.3 kPa, m2 = 1.037	0.0002567

CCCCn1cc[n+](C)c1.O=S(=O)([O-])C(F)(F)F [1-butyl-3-methylimidazolium trifluoromethanesulfonate] + O=C=O
Settings	molar volume [m3/mol]
303.15 K, 233.6 kPa, m2 = 0.1586	0.0002163
303.15 K, 712 kPa, m2 = 0.5016	0.0002044
303.15 K, 1209.3 kPa, m2 = 0.8577	0.0001937
303.15 K, 1706.3 kPa, m2 = 1.236	0.0001836
303.15 K, 2180.4 kPa, m2 = 1.637	0.0001742
303.15 K, 2663.3 kPa, m2 = 2.038	0.000166
303.15 K, 3188 kPa, m2 = 2.481	0.000158
313.15 K, 244.1 kPa, m2 = 0.1345	0.0002188
313.15 K, 713.2 kPa, m2 = 0.418	0.0002088
313.15 K, 1212.5 kPa, m2 = 0.7087	0.0001997
313.15 K, 1722.9 kPa, m2 = 1.029	0.0001907
313.15 K, 2194.4 kPa, m2 = 1.329	0.0001831
313.15 K, 2669.6 kPa, m2 = 1.632	0.0001761
313.15 K, 3135.3 kPa, m2 = 1.944	0.0001696
323.15 K, 239.4 kPa, m2 = 0.1102	0.0002213
323.15 K, 707.7 kPa, m2 = 0.3453	0.0002129
323.15 K, 1223.5 kPa, m2 = 0.5993	0.0002047
323.15 K, 1721.4 kPa, m2 = 0.8739	0.0001966
323.15 K, 2204.9 kPa, m2 = 1.131	0.0001897
323.15 K, 2697.2 kPa, m2 = 1.397	0.0001832
323.15 K, 3198.1 kPa, m2 = 1.707	0.0001762
333.15 K, 239.9 kPa, m2 = 0.0968	0.0002234
333.15 K, 756.2 kPa, m2 = 0.3124	0.0002157
333.15 K, 1259.5 kPa, m2 = 0.5379	0.0002083
333.15 K, 1767.4 kPa, m2 = 0.7626	0.0002015
333.15 K, 2242.8 kPa, m2 = 0.9814	0.0001953
333.15 K, 2734.2 kPa, m2 = 1.226	0.000189
333.15 K, 3236.7 kPa, m2 = 1.474	0.0001831
343.15 K, 250.3 kPa, m2 = 0.0877	0.0002253
343.15 K, 746.9 kPa, m2 = 0.2655	0.0002189
343.15 K, 1255 kPa, m2 = 0.4535	0.0002126
343.15 K, 1759 kPa, m2 = 0.6555	0.0002063
343.15 K, 2265.7 kPa, m2 = 0.8561	0.0002004
343.15 K, 2732.5 kPa, m2 = 1.072	0.0001946
343.15 K, 3216 kPa, m2 = 1.276	0.0001895

S [hydrogen sulfide] + CCCCn1cc[n+](C)c1.O=S(=O)([O-])C(F)(F)F
Settings	molar volume [m3/mol]
303.15 K, 172.6 kPa, m1 = 0.5717	0.0001972
303.15 K, 339.1 kPa, m1 = 1.141	0.000178
303.15 K, 491.8 kPa, m1 = 1.715	0.0001633
303.15 K, 691.5 kPa, m1 = 2.517	0.0001472
303.15 K, 857 kPa, m1 = 3.192	0.0001371
303.15 K, 1016.5 kPa, m1 = 3.857	0.0001282
303.15 K, 1178.1 kPa, m1 = 4.512	0.0001212
303.15 K, 1368.5 kPa, m1 = 5.449	0.0001129
303.15 K, 1494.2 kPa, m1 = 6.127	0.000108
313.15 K, 169.3 kPa, m1 = 0.4237	0.0002046
313.15 K, 392.6 kPa, m1 = 1.017	0.0001836
313.15 K, 605 kPa, m1 = 1.634	0.0001669
313.15 K, 813.7 kPa, m1 = 2.295	0.0001529
313.15 K, 1021.5 kPa, m1 = 3.03	0.0001406
313.15 K, 1244.6 kPa, m1 = 3.892	0.0001294
313.15 K, 1455.3 kPa, m1 = 4.807	0.00012
313.15 K, 1592.1 kPa, m1 = 5.49	0.0001142
323.15 K, 188 kPa, m1 = 0.3783	0.000208
323.15 K, 418.4 kPa, m1 = 0.874	0.0001897
323.15 K, 647.6 kPa, m1 = 1.409	0.0001741
323.15 K, 1041.4 kPa, m1 = 2.42	0.0001522
323.15 K, 1294 kPa, m1 = 3.138	0.0001407
323.15 K, 1501.2 kPa, m1 = 3.819	0.0001319
323.15 K, 1614.4 kPa, m1 = 4.192	0.0001272
333.15 K, 196.6 kPa, m1 = 0.3257	0.0002118
333.15 K, 459.2 kPa, m1 = 0.7804	0.0001944
333.15 K, 705.7 kPa, m1 = 1.237	0.0001803
333.15 K, 907.8 kPa, m1 = 1.635	0.00017
333.15 K, 1176.8 kPa, m1 = 2.188	0.0001581
333.15 K, 1400.8 kPa, m1 = 2.685	0.0001492
333.15 K, 1570.7 kPa, m1 = 3.114	0.0001426
343.15 K, 207.6 kPa, m1 = 0.279	0.0002154
343.15 K, 456.9 kPa, m1 = 0.6403	0.000201
343.15 K, 706.7 kPa, m1 = 1.021	0.0001882
343.15 K, 923.5 kPa, m1 = 1.369	0.0001783
343.15 K, 1176.5 kPa, m1 = 1.798	0.0001679
343.15 K, 1391.1 kPa, m1 = 2.179	0.0001599
343.15 K, 1632 kPa, m1 = 2.646	0.0001515
